Measured values from ChEMBL document CHEMBL5030516, “Fighting Shigella by Blocking Its Disease-Causing Toxin” (J Med Chem, 2021).

Assay: Inhibition of C-terminal 6XHis-tagged Shigella dysenteriae Stx1b (21 to 89 residues) expressed in Escherichia coli BL21 for 1 hr by ELISA assay

O=C(O)c1cc(OCc2cn([C@@H]3O[C@H](CO)[C@H](O[C@H]4O[C@H](CO)[C@H](O)[C@H](O)[C@H]4O)[C@H](O)[C@H]3O)nn2)cc(OCc2cn([C@@H]3O[C@H](CO)[C@H](O[C@H]4O[C@H](CO)[C@H](O)[C@H](O)[C@H]4O)[C@H](O)[C@H]3O)nn2)c1 and O=C(NCCOc1cc(OCCNC(=O)OCc2cn([C@@H]3O[C@H](CO)[C@H](O[C@H]4O[C@H](CO)[C@H](O)[C@H](O)[C@H]4O)[C@H](O)[C@H]3O)nn2)cc(C(=O)O)c1)OCc1cn([C@@H]2O[C@H](CO)[C@H](O[C@H]3O[C@H](CO)[C@H](O)[C@H](O)[C@H]3O)[C@H](O)[C@H]2O)nn1 are within 1.5-fold of each other in IC50: 1070 µM for the first, 1240 µM for the second.

O=C(NCCCCCCCCCCCCNC(=O)c1cc(OCc2cn([C@@H]3O[C@H](CO)[C@H](O[C@H]4O[C@H](CO)[C@H](O)[C@H](O)[C@H]4O)[C@H](O)[C@H]3O)nn2)cc(OCc2cn([C@@H]3O[C@H](CO)[C@H](O[C@H]4O[C@H](CO)[C@H](O)[C@H](O)[C@H]4O)[C@H](O)[C@H]3O)nn2)c1)c1cc(OCc2cn([C@@H]3O[C@H](CO)[C@H](O[C@H]4O[C@H](CO)[C@H](O)[C@H](O)[C@H]4O)[C@H](O)[C@H]3O)nn2)cc(OCc2cn([C@@H]3O[C@H](CO)[C@H](O[C@H]4O[C@H](CO)[C@H](O)[C@H](O)[C@H]4O)[C@H](O)[C@H]3O)nn2)c1 and O=C(O)c1cc(OCCNC(=O)c2cc(OCc3cn([C@@H]4O[C@H](CO)[C@H](O[C@H]5O[C@H](CO)[C@H](O)[C@H](O)[C@H]5O)[C@H](O)[C@H]4O)nn3)cc(OCc3cn([C@@H]4O[C@H](CO)[C@H](O[C@H]5O[C@H](CO)[C@H](O)[C@H](O)[C@H]5O)[C@H](O)[C@H]4O)nn3)c2)cc(OCCNC(=O)c2cc(OCc3cn([C@@H]4O[C@H](CO)[C@H](O[C@H]5O[C@H](CO)[C@H](O)[C@H](O)[C@H]5O)[C@H](O)[C@H]4O)nn3)cc(OCc3cn([C@@H]4O[C@H](CO)[C@H](O[C@H]5O[C@H](CO)[C@H](O)[C@H](O)[C@H]5O)[C@H](O)[C@H]4O)nn3)c2)c1 are within 1.5-fold of each other in IC50: 13.5 µM for the first, 19.9 µM for the second.

[N-]=[N+]=N[C@@H]1O[C@H](CO)[C@H](O[C@H]2O[C@H](CO)[C@H](O)[C@H](O)[C@H]2O)[C@H](O)[C@H]1O showed an IC50 of 4970 µM.
